Laboratory results reported in ChEMBL document CHEMBL4507279, “Data for DCP probe BI-9627” (2021).

Legend:
[1] = molecular target: Tyrosine-protein kinase ABL1 (Homo sapiens) (UniProt P00519); details: Compound concentration 1000.0 nM
[2] = molecular target: Tyrosine-protein kinase ABL2 (Homo sapiens) (UniProt P42684); details: Compound concentration 1000.0 nM
[3] = molecular target: Serine/threonine-protein kinase BRSK1 (Homo sapiens) (UniProt Q8TDC3); details: Compound concentration 1000.0 nM
[4] = molecular target: Calcium/calmodulin-dependent protein kinase type 1B (Homo sapiens) (UniProt Q6P2M8); details: Compound concentration 1000.0 nM
[5] = molecular target: Calcium/calmodulin-dependent protein kinase type II subunit alpha (Homo sapiens) (UniProt Q9UQM7); details: Compound concentration 1000.0 nM
Sequence of Calcium/calmodulin-dependent protein kinase type II subunit alpha (Homo sapiens) (Q9UQM7 whole entry): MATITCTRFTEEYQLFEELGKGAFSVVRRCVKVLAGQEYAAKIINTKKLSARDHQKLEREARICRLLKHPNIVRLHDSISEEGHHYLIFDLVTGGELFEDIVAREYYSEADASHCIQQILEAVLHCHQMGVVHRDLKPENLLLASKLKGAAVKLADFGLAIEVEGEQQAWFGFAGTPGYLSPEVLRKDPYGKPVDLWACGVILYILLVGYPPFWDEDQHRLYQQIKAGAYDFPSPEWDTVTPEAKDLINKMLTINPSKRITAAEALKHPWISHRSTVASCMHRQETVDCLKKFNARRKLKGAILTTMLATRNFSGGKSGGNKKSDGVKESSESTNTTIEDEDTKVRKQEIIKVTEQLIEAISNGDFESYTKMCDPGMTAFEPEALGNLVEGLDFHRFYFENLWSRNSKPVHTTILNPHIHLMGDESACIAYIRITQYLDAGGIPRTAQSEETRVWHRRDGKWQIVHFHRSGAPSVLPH

[6] = molecular target: Calcium/calmodulin-dependent protein kinase kinase 2 (Homo sapiens) (UniProt Q96RR4); details: Compound concentration 1000.0 nM
[7] = molecular target: Cyclin-dependent kinase 19 (Homo sapiens) (UniProt Q9BWU1); details: Compound concentration 1000.0 nM
[8] = molecular target: Cyclin-dependent kinase 4 (Homo sapiens) (UniProt P11802); details: Compound concentration 1000.0 nM
[9] = molecular target: Macrophage colony-stimulating factor 1 receptor (Homo sapiens) (UniProt P07333); details: Compound concentration 1000.0 nM
Sequence of Macrophage colony-stimulating factor 1 receptor (Homo sapiens) (P07333 whole entry, canonical isoform): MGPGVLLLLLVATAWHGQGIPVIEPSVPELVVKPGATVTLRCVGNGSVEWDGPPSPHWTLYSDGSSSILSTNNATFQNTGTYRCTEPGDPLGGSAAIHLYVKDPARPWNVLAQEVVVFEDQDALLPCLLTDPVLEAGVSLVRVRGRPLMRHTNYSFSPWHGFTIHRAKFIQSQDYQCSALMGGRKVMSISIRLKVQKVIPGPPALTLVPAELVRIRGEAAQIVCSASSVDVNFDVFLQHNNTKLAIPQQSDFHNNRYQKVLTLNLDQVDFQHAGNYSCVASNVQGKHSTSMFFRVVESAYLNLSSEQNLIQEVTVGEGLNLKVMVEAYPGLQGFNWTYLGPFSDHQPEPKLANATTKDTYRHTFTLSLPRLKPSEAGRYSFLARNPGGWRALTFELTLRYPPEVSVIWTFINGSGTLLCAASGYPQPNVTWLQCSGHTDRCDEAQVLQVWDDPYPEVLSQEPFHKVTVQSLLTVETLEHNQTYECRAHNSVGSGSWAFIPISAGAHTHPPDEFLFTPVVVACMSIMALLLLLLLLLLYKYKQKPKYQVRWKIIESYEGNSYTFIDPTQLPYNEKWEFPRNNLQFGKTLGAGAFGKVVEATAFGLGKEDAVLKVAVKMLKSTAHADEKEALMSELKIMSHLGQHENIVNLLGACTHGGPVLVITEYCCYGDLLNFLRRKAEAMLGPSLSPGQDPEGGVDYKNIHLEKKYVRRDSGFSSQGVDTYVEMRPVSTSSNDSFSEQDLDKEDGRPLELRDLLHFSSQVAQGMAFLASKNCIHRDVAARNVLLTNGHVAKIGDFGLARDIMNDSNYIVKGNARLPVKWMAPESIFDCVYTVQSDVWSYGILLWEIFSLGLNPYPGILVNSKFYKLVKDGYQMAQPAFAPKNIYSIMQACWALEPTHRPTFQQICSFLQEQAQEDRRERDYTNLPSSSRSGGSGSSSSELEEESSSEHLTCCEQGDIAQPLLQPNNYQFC

[10] = molecular target: Casein kinase I isoform gamma-3 (Homo sapiens) (UniProt Q9Y6M4); details: Compound concentration 1000.0 nM
[11] = molecular target: Dual specificity tyrosine-phosphorylation-regulated kinase 1A (Homo sapiens) (UniProt Q13627); details: Compound concentration 1000.0 nM
[12] = molecular target: Ephrin type-B receptor 3 (Homo sapiens) (UniProt P54753); details: Compound concentration 1000.0 nM
[13] = molecular target: Ephrin type-B receptor 4 (Homo sapiens) (UniProt P54760); details: Compound concentration 1000.0 nM
[14] = molecular target: Mitogen-activated protein kinase 4 (Homo sapiens) (UniProt P31152); details: Compound concentration 1000.0 nM
[15] = molecular target: Tyrosine-protein kinase Fes/Fps (Homo sapiens) (UniProt P07332); details: Compound concentration 1000.0 nM
[16] = test system: Fibroblast growth factor receptor 3 (Homo sapiens), P22607 [G697C]; details: Compound concentration 1000.0 nM
[17] = test system: Receptor-type tyrosine-protein kinase FLT3 (Homo sapiens), P36888 [UNDEFINED MUTATION]; details: Compound concentration 1000.0 nM
[18] = molecular target: Tyrosine-protein kinase FRK (Homo sapiens) (UniProt P42685); details: Compound concentration 1000.0 nM
[19] = molecular target: G protein-coupled receptor kinase 3 (Homo sapiens) (UniProt P35626); details: Compound concentration 1000.0 nM
[20] = test system: Mast/stem cell growth factor receptor Kit (Homo sapiens), P10721 [L576P]; details: Compound concentration 1000.0 nM
[21] = test system: Mast/stem cell growth factor receptor Kit (Homo sapiens), P10721 [V559D,V654A]; details: Compound concentration 1000.0 nM
[22] = molecular target: Maternal embryonic leucine zipper kinase (Homo sapiens) (UniProt Q14680); details: Compound concentration 1000.0 nM
Sequence of Maternal embryonic leucine zipper kinase (Homo sapiens) (Q14680 whole entry, looked up): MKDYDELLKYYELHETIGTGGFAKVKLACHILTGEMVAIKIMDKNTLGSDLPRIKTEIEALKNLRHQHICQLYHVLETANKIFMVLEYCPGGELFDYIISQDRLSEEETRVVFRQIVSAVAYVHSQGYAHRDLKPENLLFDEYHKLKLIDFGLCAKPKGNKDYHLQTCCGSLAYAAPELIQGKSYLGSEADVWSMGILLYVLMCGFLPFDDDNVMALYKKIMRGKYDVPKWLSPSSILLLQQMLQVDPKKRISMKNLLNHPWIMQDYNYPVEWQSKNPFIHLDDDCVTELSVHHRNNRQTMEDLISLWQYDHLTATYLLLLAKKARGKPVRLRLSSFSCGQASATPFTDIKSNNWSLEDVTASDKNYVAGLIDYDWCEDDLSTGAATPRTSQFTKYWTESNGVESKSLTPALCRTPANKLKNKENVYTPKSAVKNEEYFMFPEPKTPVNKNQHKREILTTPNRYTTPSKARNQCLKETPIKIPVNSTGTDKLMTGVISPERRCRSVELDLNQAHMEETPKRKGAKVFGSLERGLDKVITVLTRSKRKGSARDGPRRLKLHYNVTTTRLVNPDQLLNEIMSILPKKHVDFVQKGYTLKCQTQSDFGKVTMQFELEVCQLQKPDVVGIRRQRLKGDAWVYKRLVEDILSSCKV

[23] = molecular target: Mitogen-activated protein kinase kinase kinase 10 (Homo sapiens) (UniProt Q02779); details: Compound concentration 1000.0 nM
[24] = molecular target: Serine/threonine-protein kinase 3 (Homo sapiens) (UniProt Q13188); details: Compound concentration 1000.0 nM
[25] = molecular target: Serine/threonine-protein kinase mTOR (Homo sapiens) (UniProt P42345); details: Compound concentration 1000.0 nM
[26] = molecular target: Serine/threonine-protein kinase NIM1 (Homo sapiens) (UniProt Q8IY84); details: Compound concentration 1000.0 nM
[27] = molecular target: Serine/threonine-protein kinase PknB (Mycobacterium tuberculosis) (UniProt P9WI81); details: Compound concentration 1000.0 nM
[28] = molecular target: Serine/threonine-protein kinase D1 (Homo sapiens) (UniProt Q15139); details: Compound concentration 1000.0 nM
Sequence of Serine/threonine-protein kinase D1 (Homo sapiens) (Q15139 whole entry): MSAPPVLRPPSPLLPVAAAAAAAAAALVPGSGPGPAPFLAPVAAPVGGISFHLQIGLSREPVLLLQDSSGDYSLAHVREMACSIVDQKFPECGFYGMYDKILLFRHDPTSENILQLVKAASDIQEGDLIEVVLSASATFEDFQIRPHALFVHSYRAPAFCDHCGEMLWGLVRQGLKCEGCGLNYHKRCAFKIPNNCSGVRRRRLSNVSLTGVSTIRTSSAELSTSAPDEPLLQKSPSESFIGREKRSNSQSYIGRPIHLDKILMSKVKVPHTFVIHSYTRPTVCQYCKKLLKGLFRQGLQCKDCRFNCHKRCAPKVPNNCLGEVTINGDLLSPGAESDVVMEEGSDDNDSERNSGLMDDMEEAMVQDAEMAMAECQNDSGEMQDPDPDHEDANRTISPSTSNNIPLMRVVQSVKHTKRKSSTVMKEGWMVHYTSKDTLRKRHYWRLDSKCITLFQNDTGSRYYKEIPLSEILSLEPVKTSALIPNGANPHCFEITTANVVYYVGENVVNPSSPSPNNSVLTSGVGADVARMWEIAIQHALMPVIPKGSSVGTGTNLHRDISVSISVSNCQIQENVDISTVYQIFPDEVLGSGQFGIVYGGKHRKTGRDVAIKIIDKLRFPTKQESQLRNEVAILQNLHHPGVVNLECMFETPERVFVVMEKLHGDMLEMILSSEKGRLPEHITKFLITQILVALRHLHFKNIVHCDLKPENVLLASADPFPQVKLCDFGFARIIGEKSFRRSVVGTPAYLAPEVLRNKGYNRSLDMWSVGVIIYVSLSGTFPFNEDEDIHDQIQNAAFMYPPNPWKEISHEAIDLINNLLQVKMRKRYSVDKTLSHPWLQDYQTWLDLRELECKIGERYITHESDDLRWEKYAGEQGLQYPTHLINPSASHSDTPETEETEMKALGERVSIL

[29] = molecular target: Interferon-induced, double-stranded RNA-activated protein kinase (Homo sapiens) (UniProt P19525); details: Compound concentration 1000.0 nM
[30] = molecular target: Proto-oncogene tyrosine-protein kinase receptor Ret (Homo sapiens) (UniProt P07949); details: Compound concentration 1000.0 nM
[31] = molecular target: Ribosomal protein S6 kinase alpha-1 (Homo sapiens) (UniProt Q15418); details: Compound concentration 1000.0 nM
[32] = molecular target: Ribosomal protein S6 kinase alpha-3 (Homo sapiens) (UniProt P51812); details: Compound concentration 1000.0 nM
Sequence of Ribosomal protein S6 kinase alpha-3 (Homo sapiens) (P51812 whole entry): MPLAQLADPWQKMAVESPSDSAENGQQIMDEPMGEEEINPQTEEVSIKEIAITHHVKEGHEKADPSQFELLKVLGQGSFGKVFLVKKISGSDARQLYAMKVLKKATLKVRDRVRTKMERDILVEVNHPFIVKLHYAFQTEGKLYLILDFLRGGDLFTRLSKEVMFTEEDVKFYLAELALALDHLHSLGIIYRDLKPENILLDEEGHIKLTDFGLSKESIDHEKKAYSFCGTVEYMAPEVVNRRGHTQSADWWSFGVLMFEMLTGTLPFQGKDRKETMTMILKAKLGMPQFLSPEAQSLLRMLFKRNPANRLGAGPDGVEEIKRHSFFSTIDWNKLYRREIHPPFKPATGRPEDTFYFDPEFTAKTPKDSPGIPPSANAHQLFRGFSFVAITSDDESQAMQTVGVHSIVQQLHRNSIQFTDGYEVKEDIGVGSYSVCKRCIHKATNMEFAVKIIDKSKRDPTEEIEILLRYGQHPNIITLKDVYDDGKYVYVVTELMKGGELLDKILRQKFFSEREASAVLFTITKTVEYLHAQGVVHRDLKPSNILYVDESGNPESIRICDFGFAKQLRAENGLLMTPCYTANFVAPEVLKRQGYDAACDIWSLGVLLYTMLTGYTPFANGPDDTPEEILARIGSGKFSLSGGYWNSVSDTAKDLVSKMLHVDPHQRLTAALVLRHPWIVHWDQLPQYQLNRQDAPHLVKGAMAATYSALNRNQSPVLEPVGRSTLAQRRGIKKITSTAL

[33] = molecular target: Serine/threonine-protein kinase SBK1 (Homo sapiens) (UniProt Q52WX2); details: Compound concentration 1000.0 nM
[34] = molecular target: Serine/threonine-protein kinase SIK1 (Homo sapiens) (UniProt P57059); details: Compound concentration 1000.0 nM
Sequence of Serine/threonine-protein kinase SIK1 (Homo sapiens) (P57059 whole entry): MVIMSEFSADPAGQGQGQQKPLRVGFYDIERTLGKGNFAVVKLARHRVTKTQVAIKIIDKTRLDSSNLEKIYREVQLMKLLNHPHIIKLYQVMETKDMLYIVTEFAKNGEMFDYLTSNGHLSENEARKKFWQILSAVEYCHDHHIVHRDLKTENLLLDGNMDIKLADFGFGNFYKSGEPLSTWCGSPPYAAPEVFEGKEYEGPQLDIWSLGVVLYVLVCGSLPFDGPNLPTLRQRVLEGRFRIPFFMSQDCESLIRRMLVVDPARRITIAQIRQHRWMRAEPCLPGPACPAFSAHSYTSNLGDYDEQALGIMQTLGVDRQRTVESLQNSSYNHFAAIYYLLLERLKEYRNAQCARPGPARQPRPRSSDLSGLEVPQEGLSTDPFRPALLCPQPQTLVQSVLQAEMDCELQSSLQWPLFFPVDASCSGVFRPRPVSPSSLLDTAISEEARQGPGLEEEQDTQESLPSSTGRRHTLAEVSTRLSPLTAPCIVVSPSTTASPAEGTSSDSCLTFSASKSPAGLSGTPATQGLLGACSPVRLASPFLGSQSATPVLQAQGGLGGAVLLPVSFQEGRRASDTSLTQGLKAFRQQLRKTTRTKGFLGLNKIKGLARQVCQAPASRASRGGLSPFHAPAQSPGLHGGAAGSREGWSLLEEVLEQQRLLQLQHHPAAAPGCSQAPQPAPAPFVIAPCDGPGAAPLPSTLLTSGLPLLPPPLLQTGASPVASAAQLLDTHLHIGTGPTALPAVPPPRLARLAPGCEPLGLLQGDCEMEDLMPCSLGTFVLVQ

[35] = molecular target: Proto-oncogene tyrosine-protein kinase Src (Homo sapiens) (UniProt P12931); details: Compound concentration 1000.0 nM
Sequence of Proto-oncogene tyrosine-protein kinase Src (Homo sapiens) (P12931 2-536 limits assumed): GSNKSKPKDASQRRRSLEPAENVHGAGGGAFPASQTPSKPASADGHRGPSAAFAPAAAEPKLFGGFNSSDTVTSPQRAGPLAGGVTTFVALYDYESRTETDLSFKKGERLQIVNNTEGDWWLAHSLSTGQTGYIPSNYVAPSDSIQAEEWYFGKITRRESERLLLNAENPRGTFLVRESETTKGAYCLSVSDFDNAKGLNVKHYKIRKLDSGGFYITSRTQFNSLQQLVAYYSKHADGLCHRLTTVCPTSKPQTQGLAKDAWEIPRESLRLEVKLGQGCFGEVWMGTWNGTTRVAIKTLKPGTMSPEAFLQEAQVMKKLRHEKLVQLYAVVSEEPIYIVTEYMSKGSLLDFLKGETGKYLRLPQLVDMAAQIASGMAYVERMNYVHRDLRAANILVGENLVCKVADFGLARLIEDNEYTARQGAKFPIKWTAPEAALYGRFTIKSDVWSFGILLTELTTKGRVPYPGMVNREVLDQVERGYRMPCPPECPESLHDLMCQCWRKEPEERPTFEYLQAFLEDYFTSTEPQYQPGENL

[36] = molecular target: Serine/threonine-protein kinase 16 (Homo sapiens) (UniProt O75716); details: Compound concentration 1000.0 nM
[37] = molecular target: Serine/threonine-protein kinase 36 (Homo sapiens) (UniProt Q9NRP7); details: Compound concentration 1000.0 nM
[38] = molecular target: Serine/threonine-protein kinase tousled-like 2 (Homo sapiens) (UniProt Q86UE8); details: Compound concentration 1000.0 nM
[39] = molecular target: Serine/threonine-protein kinase WNK1 (Homo sapiens) (UniProt Q9H4A3); details: Compound concentration 1000.0 nM
[40] = molecular target: Tyrosine-protein kinase Yes (Homo sapiens) (UniProt P07947); details: Compound concentration 1000.0 nM
[41] = molecular target: Tyrosine-protein kinase ZAP-70 (Homo sapiens) (UniProt P43403); details: Compound concentration 1000.0 nM
[42] = molecular target: Alpha-2C adrenergic receptor (Homo sapiens) (UniProt P18825); details: Compound concentration 10.0 uM

CC(=O)N1CCC(c2ccc(C(=O)NC3=NCCN3)cc2C(F)(F)F)CC1 [BI 0054]
inactive: residual activity [1] 83% | residual activity [2] 100% | residual activity [3] 100% | residual activity [4] 88% | residual activity [5] 94% | residual activity [6] 100% | residual activity [7] 100% | residual activity [8] 94% | residual activity [9] 94% | residual activity [10] 100% | residual activity [11] 74% | residual activity [12] 93% | residual activity [13] 100% | residual activity [14] 87% | residual activity [15] 100% | residual activity [16] 87% | residual activity [17] 100% | residual activity [18] 97% | residual activity [19] 76% | residual activity [20] 95% | residual activity [21] 100% | residual activity [22] 100% | residual activity [23] 100% | residual activity [24] 100% | residual activity [25] 67% | residual activity [26] 100% | residual activity [27] 100% | residual activity [28] 100% | residual activity [29] 100% | residual activity [30] 100% | residual activity [31] 100% | residual activity [32] 99% | residual activity [33] 97% | residual activity [34] 100% | residual activity [35] 99% | residual activity [36] 100% | residual activity [37] 83% | residual activity [38] 100% | residual activity [39] 99% | residual activity [40] 100% | residual activity [41] 97% | inhibition [42] 16.3%

CC(=O)N1CCC(c2ccc(C(=O)NC(=N)N)cc2C(F)(F)F)CC1 [BI 9627]
inactive: residual activity [1] 89% | residual activity [2] 100% | residual activity [3] 87% | residual activity [4] 100% | residual activity [5] 100% | residual activity [6] 100% | residual activity [7] 100% | residual activity [8] 97% | residual activity [9] 85% | residual activity [10] 100% | residual activity [11] 74% | residual activity [12] 97% | residual activity [13] 100% | residual activity [14] 100% | residual activity [15] 96% | residual activity [16] 98% | residual activity [17] 91% | residual activity [18] 100% | residual activity [19] 92% | residual activity [20] 92% | residual activity [21] 100% | residual activity [22] 100% | residual activity [23] 95% | residual activity [24] 100% | residual activity [25] 100% | residual activity [26] 100% | residual activity [27] 100% | residual activity [28] 100% | residual activity [29] 100% | residual activity [30] 100% | residual activity [31] 100% | residual activity [32] 100% | residual activity [33] 100% | residual activity [34] 100% | residual activity [35] 100% | residual activity [36] 100% | residual activity [37] 100% | residual activity [38] 100% | residual activity [39] 100% | residual activity [40] 98% | residual activity [41] 100% | inhibition [42] 9.12%
